For the first data set, the target named is T1, Neuropeptide Y receptor type 2 (Homo sapiens, UniProt P49146).
T1 sequence (P49146 whole entry): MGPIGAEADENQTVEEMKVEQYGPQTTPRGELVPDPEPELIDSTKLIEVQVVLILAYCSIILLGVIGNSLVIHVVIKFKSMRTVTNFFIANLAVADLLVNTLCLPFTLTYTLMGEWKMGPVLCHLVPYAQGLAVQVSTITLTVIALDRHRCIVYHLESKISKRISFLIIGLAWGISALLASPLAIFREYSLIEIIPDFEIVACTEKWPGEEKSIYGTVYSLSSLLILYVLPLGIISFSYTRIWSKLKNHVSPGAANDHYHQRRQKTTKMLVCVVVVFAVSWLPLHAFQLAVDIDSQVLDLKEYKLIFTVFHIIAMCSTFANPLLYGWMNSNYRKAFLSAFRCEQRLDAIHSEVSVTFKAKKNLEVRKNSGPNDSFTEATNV
Put plainly: Displacement of [125I]PYY from human NPY Y2 receptor expressed endogenously in KAN-Ts cells by scintillation counting. It is filed as cell-based.
`CCOc1ccc(NC(=S)N2CCC(C(O)(c3ccccc3)c3ccccc3)CC2)cc1` returned a half-inhibitory concentration (IC50) of 0.2 µM. On the same count and under the same terms, the value for `CCNC(=O)C(c1ccccc1)N1CCN(c2ccc(NC(=O)c3ccccc3-c3ccccc3)cc2C#N)CC1` (stereo not drawn) was 0.011 µM. On the same count and under the same terms, as for `CCNC(=O)C(c1ccccc1)N1CCN(c2ccc(NC(=O)c3ccccc3-c3cccnc3)cc2C#N)CC1` (stereo not drawn), the figure is 0.03 µM; as for `CCN(CC)C(=O)C(c1ccccc1)N1CCN(c2ccc(NC(=O)c3ccccc3-c3ccccc3)cc2C#N)CC1` (racemic; 28), 0.037 µM; as for `COC(=O)C(c1ccccc1)N1CCN(c2ccc(NC(=O)c3ccccc3-c3ccccc3)cc2C#N)CC1` (stereo not drawn), 0.025 µM. Consider `CCNC(=O)C(c1ccccc1)N1CCN(c2ccc(NC(=O)C(CC)CC)cc2F)CC1` (stereo not drawn), for which the IC50 came out at 0.37 µM. Consider `CCN(CC)C(=O)C(c1ccccc1)N1CCN(c2ccc(NC(=O)c3ccccc3-c3ccccc3)cc2C#N)CC1` (racemic; 30), for which the IC50 turned out to be 0.008 µM. For `COC(=O)C(c1ccccc1)N1CCN(c2ccc(NC(=O)c3ccccc3-c3cccnc3)cc2)CC1` (stereo not drawn), the half-inhibitory concentration (IC50) came out at 0.22 µM.

Regarding `COC(=O)C(c1ccccc1)N1CCN(c2ccc(NC(=O)c3ccccc3-c3ccccc3)cc2C)CC1` (stereo not drawn), the IC50 was 0.1 µM.

For the molecule `CCN(CC)C(=O)[C@@H](c1ccccc1)N1CCN(c2ccc(NC(=O)c3ccccc3-c3cccnc3)cc2F)CC1`, the IC50 turned out to be 0.009 µM. Still for that read-out and setting: the value for `COC(=O)C(c1ccccc1)N1CCN(c2ccc(NC(=O)c3ccccc3-c3cccnc3)cc2F)CC1` (stereo not drawn) was 0.04 µM.

Turning to `CCNC(=O)C(c1ccccc1)N1CCN(c2ccc(NC(=O)C(CC)CC)cc2C#N)CC1` (stereo not drawn), the IC50 stood at 0.15 µM.

On to `CCN(CC)C(=O)[C@H](c1ccccc1)N1CCN(c2ccc(NC(=O)c3ccccc3-c3cccnc3)cc2F)CC1`, for which the IC50 came out at 0.014 µM. `COC(=O)C(c1ccccc1)N1CCN(c2ccc(NC(=O)c3ccccc3-c3ccncc3)cc2F)CC1` (stereo not drawn) displayed an IC50 of 0.037 µM. As to `CCNC(=O)C(c1ccccc1)N1CCN(c2ccc(NC(=O)c3ccccc3-c3ccccc3)cc2F)CC1` (stereo not drawn), the IC50 stood at 0.035 µM. This IC50 and that of the molecule before are within 1.5-fold of each other. As for `COC(=O)C(c1ccccc1)N1CCN(c2ccc(NC(=O)c3ccccc3-c3ccncc3)cc2)CC1` (stereo not drawn), the half-maximal inhibitory concentration (IC50) was 0.24 µM. This IC50 lies about 6.9-fold higher than the previous one. In turn, `CCN(CC)C(=O)C(c1ccccc1)N1CCN(c2ccc(NC(=O)c3ccccc3-c3ccccc3)cc2F)CC1` (racemic) showed a 50% inhibitory concentration (IC50) of 0.01 µM. Against the preceding molecule, the IC50 is about 24-fold lower. `CCC(CC)C(=O)Nc1ccc(N2CCN(C(C(=O)N(CC)CC)c3ccccc3)CC2)c(C#N)c1` (racemic; 34) yielded an IC50 of 0.013 µM. This IC50 and that of the molecule before are within 1.5-fold of each other. Same read-out and setting: as for `CCN(CC)C(=O)C(c1ccccc1)N1CCN(c2ccc(NC(=O)c3ccccc3-c3cccnc3)cc2F)CC1` (racemic), the figure is 0.006 µM.

Take `CCNC(=O)C(c1ccccc1)N1CCN(c2ccc(NC(=O)c3ccccc3-c3cccnc3)cc2F)CC1` (stereo not drawn): the IC50 amounted to 0.042 µM. Molecule `COC(=O)C(c1ccccc1)N1CCN(c2ccc(NC(=O)c3ccccc3-c3ccccc3)cc2F)CC1` (stereo not drawn) came in with an IC50 of 0.052 µM.

Regarding `COc1cccnc1C(=O)N1CCN(c2ccc(NC(C)(C)c3ccccc3)cc2Cl)CC1`, the IC50 was 0.025 µM. This IC50 is about 2.1-fold lower than that of the molecule before. Still for that read-out and setting: as for `COC(=O)C(c1ccccc1)N1CCN(c2ccc(NC(=O)c3ccccc3-c3ccccc3)cc2)CC1` (stereo not drawn), the figure is 0.53 µM; as for `CCC(CC)C(=O)Nc1ccc(N2CCN(C(C(=O)N(CC)CC)c3ccccc3)CC2)c(C#N)c1` (racemic; 32), 0.2 µM. Same read-out and setting: the value for `CCC(CC)C(=O)Nc1ccc(N2CCN(C(C(=O)N(CC)CC)c3ccccc3)CC2)c(F)c1` (racemic) was 0.05 µM. The same measure, in the same setting: the value for `CCC(CC)C(=O)Nc1ccc(N2CCN(C(C(=O)OC)c3ccccc3)CC2)c(F)c1` (stereo not drawn) was 0.165 µM.

For a further data set, the target named is CYP2C9 (Homo sapiens, UniProt P11712). Put plainly: Inhibition of CYP2C9 at 10 uM. The class given is ADME.
Sequence of CYP2C9 (P11712 whole entry): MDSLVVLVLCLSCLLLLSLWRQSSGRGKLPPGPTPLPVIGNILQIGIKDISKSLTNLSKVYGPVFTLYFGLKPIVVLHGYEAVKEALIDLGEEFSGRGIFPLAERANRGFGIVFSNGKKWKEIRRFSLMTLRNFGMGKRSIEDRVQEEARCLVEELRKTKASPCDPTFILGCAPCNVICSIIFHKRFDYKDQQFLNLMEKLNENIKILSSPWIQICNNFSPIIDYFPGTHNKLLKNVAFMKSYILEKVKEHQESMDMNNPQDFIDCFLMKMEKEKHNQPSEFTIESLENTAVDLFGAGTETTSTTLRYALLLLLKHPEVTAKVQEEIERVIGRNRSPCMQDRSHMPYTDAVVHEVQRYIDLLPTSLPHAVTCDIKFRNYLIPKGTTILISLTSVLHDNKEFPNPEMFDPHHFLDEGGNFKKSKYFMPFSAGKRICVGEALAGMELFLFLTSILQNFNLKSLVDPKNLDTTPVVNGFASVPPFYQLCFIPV
As to `CCC(CC)C(=O)Nc1ccc(N2CCN(C(C(=O)N(CC)CC)c3ccccc3)CC2)c(C#N)c1` (racemic; 34), the inhibition at 10 µM is > 75%.

In the next data set the target is CYP2D6 (Homo sapiens, UniProt P10635). Put plainly: Inhibition of CYP2D6 at 10 uM. It is filed as ADME.
Sequence of CYP2D6 (P10635 whole entry): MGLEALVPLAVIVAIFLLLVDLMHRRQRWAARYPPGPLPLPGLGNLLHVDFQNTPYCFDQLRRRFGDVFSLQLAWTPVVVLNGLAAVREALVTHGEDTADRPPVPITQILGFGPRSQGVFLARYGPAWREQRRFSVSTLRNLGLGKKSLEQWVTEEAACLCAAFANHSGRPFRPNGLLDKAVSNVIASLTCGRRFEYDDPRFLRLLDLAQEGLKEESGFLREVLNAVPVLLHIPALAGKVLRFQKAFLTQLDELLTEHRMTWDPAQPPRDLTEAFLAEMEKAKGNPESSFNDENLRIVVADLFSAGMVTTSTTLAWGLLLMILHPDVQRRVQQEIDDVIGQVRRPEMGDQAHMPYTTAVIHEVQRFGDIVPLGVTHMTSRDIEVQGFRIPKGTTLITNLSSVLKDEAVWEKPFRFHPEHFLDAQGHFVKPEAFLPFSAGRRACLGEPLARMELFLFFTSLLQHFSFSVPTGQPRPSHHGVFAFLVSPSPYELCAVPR
In the case of `CCC(CC)C(=O)Nc1ccc(N2CCN(C(C(=O)N(CC)CC)c3ccccc3)CC2)c(C#N)c1` (racemic; 34), the inhibition at 10 µM was > 75%.

Values taken from ChEMBL document CHEMBL1821563, “The discovery and synthesis of JNJ 31020028, a small molecule antagonist of the Neuropeptide Y Y₂ receptor” (Bioorg Med Chem Lett, 2011).
